These results are taken from patent US9464048B2, “5-oxo-ETE receptor antagonist compounds” (THE ROYAL INSTITUTION FOR THE ADVANCEMENT OF …, priority 2009, dated 2016).

Read-outs that look alike come from different tables or passages of the source.

The target in the assay is OXE receptor (Homo sapiens, UniProt Q8TDS5). The assay is described as follows: 5-oxo-ETE-induced calcium mobilization in human granulocytes. It is filed as cell-based. Also on record: Human granulocytes 95% neutrophils) are prepared from whole blood; endogenous in cells; host or cells: human blood granulocytes (>=95% neutrophils). As for the experimental part:
Primary Screening for Antagonist Activity: Calcium Mobilization in Human Granulocytes
Human granulocytes 95% neutrophils) are prepared from whole blood using Dextran 500 to remove red blood cells, followed by centrifugation over Ficoll-Paque to remove mononuclear cells and hypotonic lysis of any remaining red blood cells. After centrifugation the granulocytes are suspended in Ca^++/Mg^++-free phosphate-buffered saline (PBS). Granulocytes (10^7 cells/nil) are incubated with the acetoxymethyl ester of indo-1 ([…]) for 30 min, followed by washing twice with PBS^− and resuspension in the same medium to obtain a final cell concentration of 3.22×10^6 cells/ml. Five minutes prior to commencing data acquisition, Ca^++ and Mg^++ are added to give final concentrations of 1.8 and 1 mM, respectively. Calcium measurements are performed at 37° C. using a spectrofluorometer equipped with a temperature-controlled cuvette holder and a magnetic stirrer. The excitation and emission wavelengths are 331 nm and 410 nm, respectively. Following stabilization of the baseline, fluorescence is measured for 1 min, prior to the addition of either vehicle or various concentrations of a potential 5-oxo-ETE antagonist. Two min later, 5-oxo-ETE (10 nM) is added, followed 1 min later by digitonin (final concentration 0.1%). Data acquisition is terminated after a further 0.5 min. In some cases LTB4 (10 nM) is added 2 min after 5-oxo-ETE, followed 0.5 min later by addition of digitonin. Fmax is determined from fluorescence measurements after the addition of digitonin, whereas Fmin is determined after determination of autofluorescence as described in the literature (Gelfand et al, J. Biol. Chem. 261:11520 (1986)). A dissociation constant of 250 nM for the indo-1/Ca^++ complex is used to calculate [Ca^++]i. […] Measurement of Actin Polymerization in Eosinophils
In general terms: A change in cytosolic calcium serves as a functional read-out for many receptors and channels.

The mark [1] stands for this setting: 5-oxo-ETE 10 nM, human granulocytes, Table 2, read-out: IC50 (μM) Ca^++.
[2] abbreviates: Table 3, position of hexyl/hexenyl on the scaffold, readout not given, values match Ca^++, read-out: IC50.
Where [3] appears, read: Table 5, alkyl chain variation, readout not given, values match Ca^++, read-out: IC50.
[4] abbreviates: Table 6, carboxyl side chain variation, readout not given, values match Ca^++, read-out: IC50.
Where [5] appears, read: Table 4, R1/R2/R3 variation, readout not given, read-out: IC50.
Setting [6] is: Table 7, alkyl variation, readout not given, values match Ca^++, read-out: IC50.

Sequence of OXE receptor (Q8TDS5 whole entry): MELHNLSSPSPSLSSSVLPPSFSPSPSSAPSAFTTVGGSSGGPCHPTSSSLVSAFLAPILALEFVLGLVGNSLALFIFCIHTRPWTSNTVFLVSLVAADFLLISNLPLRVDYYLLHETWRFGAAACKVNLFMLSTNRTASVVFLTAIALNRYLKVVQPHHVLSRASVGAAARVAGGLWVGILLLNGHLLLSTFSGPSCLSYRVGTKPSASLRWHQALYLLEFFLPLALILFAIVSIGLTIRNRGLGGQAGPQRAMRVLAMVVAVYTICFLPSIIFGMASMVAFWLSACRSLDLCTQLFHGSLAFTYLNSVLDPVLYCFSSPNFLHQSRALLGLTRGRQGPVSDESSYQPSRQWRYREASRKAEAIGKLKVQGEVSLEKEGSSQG

Turning to `CC(C)CCCCc1c(C(=O)CC(C)CC(=O)O)c2ccc(Cl)cc2n1C` (racemic) [Compound 109, 5-[6-Chloro-1-methyl-2-(5-methyl-hexyl)-1H-indol-3-yl]-3-methyl-5-oxo-pentanoic acid], the IC50 (usually the concentration that gives 50% inhibition) under setting [1] came out at 0.175 µM.
Still for that read-out and setting: the figure for `CCCCCCCc1c(C(=O)CC(C)CC(=O)O)c2cc(Cl)ccc2n1C` (racemic) [Compound 113, 5-(5-Chloro-2-heptyl-1-methyl-1H-indol-3-yl)-3-methyl-5-oxo-pentanoic acid] is 0.035 µM; for `CC(C)CCCCc1cc2cc(Cl)ccc2n1C(=O)CC(C)CC(=O)O` (racemic) [Compound 115, 5-[5-Chloro-2-(5-methyl-hexyl)-indol-1-yl]-3-methyl-5-oxo-pentanoic acid] it is 2 µM; for `CCCCCCc1c(C(=O)CC(C)CC(=O)O)c2cc(Cl)ccc2n1C` (stereo in doubt) [Compound 107, 5-(5-Chloro-2-hexyl-1-methyl-1H-indol-3-yl)-3-(R)-methyl-5-oxo-pentanoic acid] it is 0.009 µM.
On to `CCCCCCc1cc2ccccc2n1C(=O)CCCC(=O)O` [Compound 1, 5-(2-Hexyl-indol-1-yl)-5-oxo-pentanoic acid], for which the IC50 runs as follows: under setting [1], 1 µM; under setting [2], 1 µM; under setting [3], 1 µM; under setting [4], 1 µM.
Turning to `CCCCCCc1cc2ccccc2n1C(=O)C[C@@H](C)CC(=O)O` [Compound 3, 5-(2-Hexyl-indol-1-yl)-3(R)-methyl-5-oxo-pentanoic acid], under setting [4], the IC50 is 0.8 µM.
Regarding `CCCCCCc1c(C(=O)CCCC(=O)O)c2ccccc2n1C` [Compound 5, 5-(2-Hexyl-1-methyl-1H-indol-3-yl)-5-oxo-pentanoic acid], the IC50 was determined as 2.5 µM under setting [1] and 3.7 µM under setting [5].
Consider `CCCCCCc1c(C(=O)CC(C)CC(=O)O)c2ccccc2n1C` (centres unmarked) [Compound 6, 5-(2-Hexyl-1-methyl-1H-indol-3-yl)-3-methyl-5-oxo-pentanoic acid], for which the IC50 under setting [1] stood at 0.34 µM.
As to `CCCCCCc1cn(C(=O)CCCC(=O)O)c2ccccc12` [Compound 7, 5-(3-Hexyl-indol-1-yl)-5-oxo-pentanoic acid], under setting [2], the IC50 was over 30 µM.
Regarding `CCCCCCn1cc(C(=O)CCCC(=O)O)c2ccccc21` [Compound 8, 5-(1-Hexyl-1H-indol-3-yl)-5-oxo-pentanoic acid], the IC50 under setting [5] is over 30 µM.
The same measure, in the same setting: the figure for `CCCCCCc1[nH]c2ccccc2c1C(=O)CCCC(=O)O` [Compound 10, 5-(2-Hexyl-1H-indol-3-yl)-5-oxo-pentanoic acid] is 11 µM; for `CCCCCCc1c(C(=O)CCCC(=O)O)n(C)c2ccccc12` [Compound 11, 5-(3-Hexyl-1-methyl-1H-indol-2-yl)-5-oxo-pentanoic acid] it is over 30 µM.
Consider `CCCC/C=C/c1cc2ccccc2n1C(=O)CCCC(=O)O` [Compound 12, 5-(2-Hex-1-enyl-indol-1-yl)-5-oxo-pentanoic acid], for which the IC50 under setting [3] came to 3.3 µM.
Take `CCCCCCc1cc2ccccc2n1C(=O)CCC(=O)O` [Compound 14, 4-(2-Hexyl-indol-1-yl)-4-oxo-butyric acid]: the IC50 under setting [4] was over 10 µM.
Same read-out and setting: then `CCCCCCc1cc2ccccc2n1CCCC(=O)O` [Compound 16, 4-(2-Hexyl-indol-1-yl)-butyric acid], with 4.5 µM.
For `CCCC/C=C/c1ccc2c(ccn2C(=O)CC(C)CC(=O)O)c1` (centres unmarked) [Compound 17, 5-(5-Hex-1-enyl-indol-1-yl)-3-methyl-5-oxo-pentanoic acid], under setting [6], the concentration for half-maximal inhibition (IC50) is 10 µM.
For `CCCCCc1cc2ccccc2n1C(=O)CCCC(=O)O` [Compound 18, 5-Oxo-5-(2-pentyl-indol-1-yl)-pentanoic acid], the IC50 under setting [3] was 1.1 µM.
Turning to `CCCCCc1cc2ccccc2n1C(=O)CC(C)CC(=O)O` (centres unmarked) [Compound 19, 3-Methyl-5-oxo-5-(2-pentyl-indol-1-yl)-pentanoic acid], the IC50 under setting [6] was 0.1 µM.
As for `CCCCCCCCC/C=C\c1cc2ccccc2n1C(=O)CCCC(=O)O` [Compound 20, 5-Oxo-5-(2-undec-1-enyl-indol-1-yl)-pentanoic acid], under setting [3], the IC50 stood at 20 µM.
`CCCCCCc1cc2ccccc2n1C(=O)CC(C)(C)CC(=O)O` [Compound 21, 5-(2-Hexyl-indol-1-yl)-3,3-dimethyl-5-oxo-pentanoic acid]: the IC50 under setting [4] was found to be 13 µM.
In the case of `CCCCCCCCCCCc1cc2ccccc2n1C(=O)CCCC(=O)O` [Compound 23, 5-Oxo-5-(2-undecyl-indol-1-yl)-pentanoic acid], under setting [3], the IC50 came to 25 µM.
On the same count and under the same terms, the figure for `CCCCCCCCc1cc2ccccc2n1C(=O)CCCC(=O)O` [Compound 25, 5-(2-Octyl-indol-1-yl)-5-oxo-pentanoic acid] is 2.7 µM; for `CCCCc1cc2ccccc2n1C(=O)CCCC(=O)O` [Compound 26, 5-(2-Butyl-indol-1-yl)-5-oxo-pentanoic acid] it is over 30 µM.
For `CCCCCCc1cccc2ccn(C(=O)CCCC(=O)O)c12` [Compound 27, 5-(7-Hexyl-indol-1-yl)-5-oxo-pentanoic acid], under setting [2], the IC50 is over 30 µM.
Same read-out and setting: then `CCCC/C=C/c1ccc2c(ccn2C(=O)CCCC(=O)O)c1` [Compound 28, 5-(5-hex-1-enyl-indol-1-yl)-5-oxo-pentanoic acid], with 6.5 µM.
For the compound `CCCCCCc1cc2cc(Cl)ccc2n1C(=O)CCCC(=O)O` [Compound 29, 5-(5-Chloro-2-hexyl-indol-1-yl)-5-oxo-pentanoic acid], the IC50 under setting [3] was 1.4 µM.
`CCCCCCc1ccc2c(ccn2C(=O)CCCC(=O)O)c1` [Compound 30, 5-(5-Hexyl-indol-1-yl)-5-oxo-pentanoic acid]: the 50% inhibitory concentration (IC50) under setting [2] was over 30 µM.
Still for that read-out and setting: the figure for `CCCCCCc1ccc2ccn(C(=O)CCCC(=O)O)c2c1` [Compound 31, 5-(6-Hexyl-indol-1-yl)-5-oxo-pentanoic acid] is over 10 µM.
The same measure, in the same setting: then `CCCC/C=C/c1cccc2ccn(C(=O)CCCC(=O)O)c12` [Compound 32, 5-(7-Hex-1-enyl-indol-1-yl)-5-oxo-pentanoic acid], with over 10 µM.
As for `CCCCCCCc1cc2ccccc2n1C(=O)CCCC(=O)O` [Compound 33, 5-(2-Heptyl-indol-1-yl)-5-oxo-pentanoic acid], the IC50 under setting [3] is 1.5 µM.
`CCCCCCCc1cc2ccccc2n1C(=O)CC(C)CC(=O)O` (centres unmarked) [Compound 34, 5-(2-Heptyl-indol-1-yl)-3-methyl-5-oxo-pentanoic acid]: the IC50 under setting [6] was 0.12 µM.
As for `CCCCCCc1c(C(=O)C[C@@H](C)CC(=O)O)c2cc(Cl)ccc2n1C` [Compound 100, 5-(5-chloro-2-hexyl-1-methyl-1H-indol-3-yl)-3-(R)-methyl-5-oxopentanoic acid], the IC50 under setting [1] is 0.125 µM.
Still for that read-out and setting: the figure for `CCCCCCc1c(C(=O)CC(C)CC(=O)O)c2cc(Cl)ccc2n1CC` (centres unmarked) [Compound 101, 5-(5-Chloro-1-ethyl-2-hexyl-1H-indol-3-yl)-3-methyl-5-oxo-pentanoic acid] is 0.35 µM.
Same read-out and setting: the figure for `CCCCCCc1c(C(=O)CC(C)CC(=O)O)c2ccccc2n1CC` (centres unmarked) [Compound 102, 5-(1-Ethyl-2-hexyl-1H-indol-3-yl)-3-methyl-5-oxo-pentanoic acid] is 1.6 µM.
Still for that read-out and setting: the figure for `CCCCCCc1c(C(=O)CC(C)CC(=O)O)c2ccc(Cl)cc2n1C` (centres unmarked) [Compound 104, 5-(6-Chloro-2-hexyl-1-methyl-1H-indol-3-yl)-3-methyl-5-oxo-pentanoic acid] is 0.119 µM.
As for `CCCCCCc1c(C(=O)CC(C)CC(=O)NC(C)c2ccccc2)c2cc(Cl)ccc2n1C` (centres unmarked) [Compound 105, 5-(5-chloro-2-hexyl-1-methyl-1H-indol-3-yl)-3-methyl-5-oxo-N-(1-phenylethyl)pentanamide], under setting [1], the IC50 is over 10 µM.
The same measure, in the same setting: the figure for `CCCCCCc1c(C(=O)C[C@@H](C)CC(=O)NC(C)c2ccccc2)c2cc(Cl)ccc2n1C` (stereo partly drawn) [Compound 106, 5-(5-Chloro-2-hexyl-1-methyl-1H-indol-3-yl)-3-(R)-methyl-5-oxo-pentanoic acid (1-phenyl-ethyl)-amide] is over 10 µM.
For the compound `CCCCCCc1c(C(=O)c2cccc(C(=O)O)c2)c2cc(Cl)ccc2n1C` [Compound 108, 3-(5-Chloro-2-hexyl-1-methyl-1H-indole-3-carbonyl)benzoic acid], the IC50 was found to be 0.065 µM.
As for `CC(C)CCCCc1cc2ccc(Cl)cc2n1C(=O)CC(C)CC(=O)O` (centres unmarked) [Compound 110, 5-[6-Chloro-2-(5-methyl-hexyl)-indol-1-yl]-3-methyl-5-oxo-pentanoic acid], the IC50 under setting [1] is 1.03 µM.
On the same count and under the same terms, the figure for `CC(C)CCCCc1c(C(=O)CC(C)CC(=O)O)c2cc(Cl)ccc2n1C` (centres unmarked) [Compound 114, 5-[5-Chloro-1-methyl-2-(5-methyl-hexyl)-1H-indol-3-yl]-3-methyl-5-oxo-pentanoic acid] is 0.011 µM.
